Reference: the Kinase Knowledgebase extract (Sharma et al. 2016)
pIC50: −log10 of the molar value.

Legend:
[1] = target: PIK3CA (human) (UniProt P42336); assay: Assessment of PIK3CA Kinase Activity
[2] = target: PIK3CD (Human) (UniProt O00329); assay: Assessment of PIK3CD Kinase Activity
[3] = target: PIK3CB (Human) (UniProt P42338); assay: Assessment of PIK3CB Kinase Activity
[4] = target: PIK3CG (human) (UniProt P48736); assay: Assessment of PIK3CG Kinase Activity
Sequence of PIK3CG (human) (P48736 whole entry, looked up): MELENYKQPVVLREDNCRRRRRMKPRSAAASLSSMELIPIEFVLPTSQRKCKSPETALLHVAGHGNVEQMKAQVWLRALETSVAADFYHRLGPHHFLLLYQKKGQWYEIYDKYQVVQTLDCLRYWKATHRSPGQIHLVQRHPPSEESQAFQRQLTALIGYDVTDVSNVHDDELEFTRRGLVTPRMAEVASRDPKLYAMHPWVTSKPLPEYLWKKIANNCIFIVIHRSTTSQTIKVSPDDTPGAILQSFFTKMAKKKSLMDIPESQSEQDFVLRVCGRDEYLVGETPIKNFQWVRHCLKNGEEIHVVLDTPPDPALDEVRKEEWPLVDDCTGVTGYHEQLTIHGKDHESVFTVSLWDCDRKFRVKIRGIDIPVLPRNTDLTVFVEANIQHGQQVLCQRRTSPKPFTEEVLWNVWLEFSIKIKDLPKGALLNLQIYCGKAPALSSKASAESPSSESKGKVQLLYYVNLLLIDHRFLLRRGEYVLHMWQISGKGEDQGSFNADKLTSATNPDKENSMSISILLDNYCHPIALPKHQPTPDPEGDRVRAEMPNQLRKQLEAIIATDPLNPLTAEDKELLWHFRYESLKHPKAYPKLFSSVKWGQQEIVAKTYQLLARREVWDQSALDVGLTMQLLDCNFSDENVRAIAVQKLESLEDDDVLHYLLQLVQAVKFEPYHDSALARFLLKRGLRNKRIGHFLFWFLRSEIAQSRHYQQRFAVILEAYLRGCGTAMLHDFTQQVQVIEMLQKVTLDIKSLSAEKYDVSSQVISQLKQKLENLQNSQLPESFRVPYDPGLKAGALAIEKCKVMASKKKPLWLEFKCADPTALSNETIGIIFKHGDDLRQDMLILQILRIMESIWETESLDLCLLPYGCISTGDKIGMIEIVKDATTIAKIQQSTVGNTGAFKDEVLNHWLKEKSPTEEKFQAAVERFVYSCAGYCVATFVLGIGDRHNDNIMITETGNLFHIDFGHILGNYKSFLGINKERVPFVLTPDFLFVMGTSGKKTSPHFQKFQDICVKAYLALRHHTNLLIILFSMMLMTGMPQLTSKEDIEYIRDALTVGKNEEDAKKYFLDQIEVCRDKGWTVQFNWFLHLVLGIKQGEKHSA

Sequence of PIK3CB (Human) (P42338 whole entry, looked up): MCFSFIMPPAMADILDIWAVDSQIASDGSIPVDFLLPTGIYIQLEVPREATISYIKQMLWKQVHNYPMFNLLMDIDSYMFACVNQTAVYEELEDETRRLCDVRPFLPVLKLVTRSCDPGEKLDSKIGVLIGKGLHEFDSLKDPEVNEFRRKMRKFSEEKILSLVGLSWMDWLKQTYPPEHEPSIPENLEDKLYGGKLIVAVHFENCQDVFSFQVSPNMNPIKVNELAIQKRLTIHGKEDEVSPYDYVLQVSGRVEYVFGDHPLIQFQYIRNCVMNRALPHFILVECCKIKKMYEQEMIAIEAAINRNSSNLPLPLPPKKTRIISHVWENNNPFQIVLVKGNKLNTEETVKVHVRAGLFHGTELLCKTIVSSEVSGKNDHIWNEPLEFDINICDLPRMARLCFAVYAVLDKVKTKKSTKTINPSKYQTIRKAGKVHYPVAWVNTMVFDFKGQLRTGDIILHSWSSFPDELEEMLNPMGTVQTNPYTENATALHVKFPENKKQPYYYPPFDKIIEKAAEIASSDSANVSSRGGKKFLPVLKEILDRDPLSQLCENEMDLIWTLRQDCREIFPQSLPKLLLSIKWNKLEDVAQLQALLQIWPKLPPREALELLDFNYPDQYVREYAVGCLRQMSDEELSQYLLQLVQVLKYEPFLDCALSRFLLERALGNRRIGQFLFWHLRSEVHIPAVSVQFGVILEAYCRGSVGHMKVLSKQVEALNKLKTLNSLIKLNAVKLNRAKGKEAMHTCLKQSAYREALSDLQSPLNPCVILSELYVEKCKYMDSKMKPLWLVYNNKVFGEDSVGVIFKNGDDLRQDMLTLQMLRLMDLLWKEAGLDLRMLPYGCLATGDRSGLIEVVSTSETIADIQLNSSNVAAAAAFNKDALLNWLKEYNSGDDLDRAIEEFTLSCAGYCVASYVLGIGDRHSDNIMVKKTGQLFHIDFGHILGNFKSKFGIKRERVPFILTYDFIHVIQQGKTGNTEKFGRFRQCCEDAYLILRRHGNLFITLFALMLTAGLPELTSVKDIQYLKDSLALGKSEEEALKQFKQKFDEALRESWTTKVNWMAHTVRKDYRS
Sequence of PIK3CA (human) (P42336 whole entry, looked up): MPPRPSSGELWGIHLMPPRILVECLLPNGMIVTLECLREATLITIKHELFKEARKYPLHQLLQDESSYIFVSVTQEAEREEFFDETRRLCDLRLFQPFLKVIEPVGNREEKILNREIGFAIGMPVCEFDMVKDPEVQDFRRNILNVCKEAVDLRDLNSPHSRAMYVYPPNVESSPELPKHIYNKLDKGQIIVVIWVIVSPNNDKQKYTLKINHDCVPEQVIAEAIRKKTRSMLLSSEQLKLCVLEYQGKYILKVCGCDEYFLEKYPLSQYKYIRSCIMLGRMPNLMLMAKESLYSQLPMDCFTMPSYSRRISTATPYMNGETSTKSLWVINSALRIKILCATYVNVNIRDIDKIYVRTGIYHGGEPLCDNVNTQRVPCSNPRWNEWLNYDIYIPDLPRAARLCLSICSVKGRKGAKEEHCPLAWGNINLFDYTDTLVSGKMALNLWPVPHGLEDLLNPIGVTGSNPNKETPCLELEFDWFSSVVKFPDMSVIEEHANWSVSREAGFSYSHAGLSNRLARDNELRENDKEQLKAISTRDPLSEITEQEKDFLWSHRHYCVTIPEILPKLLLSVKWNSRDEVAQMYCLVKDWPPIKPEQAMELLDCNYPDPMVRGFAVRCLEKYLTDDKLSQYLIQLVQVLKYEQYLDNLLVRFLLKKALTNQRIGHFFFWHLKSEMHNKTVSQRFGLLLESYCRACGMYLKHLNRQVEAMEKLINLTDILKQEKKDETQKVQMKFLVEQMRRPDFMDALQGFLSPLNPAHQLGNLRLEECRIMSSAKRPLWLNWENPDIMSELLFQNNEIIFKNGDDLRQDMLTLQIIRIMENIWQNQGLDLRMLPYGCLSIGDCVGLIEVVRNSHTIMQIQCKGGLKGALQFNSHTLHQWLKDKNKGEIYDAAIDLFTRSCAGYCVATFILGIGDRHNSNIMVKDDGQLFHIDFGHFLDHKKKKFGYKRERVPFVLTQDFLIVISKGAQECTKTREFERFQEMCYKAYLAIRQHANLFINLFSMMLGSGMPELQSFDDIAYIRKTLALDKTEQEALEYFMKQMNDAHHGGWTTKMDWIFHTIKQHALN
Sequence of PIK3CD (Human) (O00329 whole entry, looked up): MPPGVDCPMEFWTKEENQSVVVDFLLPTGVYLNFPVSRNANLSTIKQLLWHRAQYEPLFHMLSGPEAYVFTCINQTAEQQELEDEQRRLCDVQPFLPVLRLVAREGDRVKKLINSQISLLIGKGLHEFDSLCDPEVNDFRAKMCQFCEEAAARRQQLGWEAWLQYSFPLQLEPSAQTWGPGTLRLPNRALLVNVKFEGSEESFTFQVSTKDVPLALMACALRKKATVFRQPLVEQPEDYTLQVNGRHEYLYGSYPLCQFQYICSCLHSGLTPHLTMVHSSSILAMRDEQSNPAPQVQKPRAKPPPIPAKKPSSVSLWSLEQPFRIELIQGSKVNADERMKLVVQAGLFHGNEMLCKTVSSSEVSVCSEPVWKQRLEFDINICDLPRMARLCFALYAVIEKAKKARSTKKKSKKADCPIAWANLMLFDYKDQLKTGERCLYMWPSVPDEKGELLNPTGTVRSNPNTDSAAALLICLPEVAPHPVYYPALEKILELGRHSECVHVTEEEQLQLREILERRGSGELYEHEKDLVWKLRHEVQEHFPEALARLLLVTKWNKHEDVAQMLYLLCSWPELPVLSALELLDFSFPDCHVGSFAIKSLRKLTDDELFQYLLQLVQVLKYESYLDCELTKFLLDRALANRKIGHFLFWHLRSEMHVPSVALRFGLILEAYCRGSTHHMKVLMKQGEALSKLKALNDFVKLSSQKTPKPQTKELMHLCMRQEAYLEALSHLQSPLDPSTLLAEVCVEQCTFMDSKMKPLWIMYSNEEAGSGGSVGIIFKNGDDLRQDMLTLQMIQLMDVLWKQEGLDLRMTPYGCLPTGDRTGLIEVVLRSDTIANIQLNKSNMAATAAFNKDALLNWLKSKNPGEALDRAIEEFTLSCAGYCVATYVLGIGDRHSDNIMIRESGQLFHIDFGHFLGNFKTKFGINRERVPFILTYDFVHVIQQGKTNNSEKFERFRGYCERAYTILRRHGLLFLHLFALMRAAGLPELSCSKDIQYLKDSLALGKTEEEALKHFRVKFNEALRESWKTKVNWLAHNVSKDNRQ

Row | pIC50 [1] | pIC50 [2] | pIC50 [3] | pIC50 [4] | Compound
1 | < 5.00 | 6.00 to 7.00 | < 5.00 | 6.00 to 7.00 | C[C@H](Nc1nc(Cl)nc2cccnc12)c1cc2cccc(-c3cnn(C)c3)c2c(=O)n1-c1cccc(F)c1
2 | < 5.00 | > 7.00 | < 5.00 | 6.00 to 7.00 | COc1ncc(-c2cccc3cc([C@H](C)Nc4cc(N)nc5ccnn45)n(-c4ccccc4)c(=O)c23)cn1
3 | < 5.00 | > 7.00 | < 5.00 | > 7.00 | Cc1ncc(-c2cccc3cc([C@H](C)Nc4nc(N)nc5cccnc45)n(-c4ccccc4)c(=O)c23)cn1
4 | 6.00 to 7.00 | > 7.00 | > 7.00 | > 7.00 | C[C@H](Nc1nc(N)nc2[nH]cnc12)c1cc2cccc(C(F)(F)F)c2c(=O)n1-c1ccccc1
5 | 6.00 to 7.00 | > 7.00 | > 7.00 | > 7.00 | C[C@H](Nc1nc(N)nc2cccnc12)c1cc2cccc(Cl)c2c(=O)n1-c1ccc(F)cc1
6 | < 5.00 | 6.00 to 7.00 | < 5.00 | > 7.00 | C[C@H](Nc1nc(Cl)nc2cccnc12)c1cc2cccc(-c3cnn(C)c3)c2c(=O)n1-c1ccccc1
7 | < 5.00 | < 5.00 | < 5.00 | 6.00 to 7.00 | C[C@H](Nc1ncnc2cccnc12)c1cc2cccc(C(=O)O)c2c(=O)n1-c1ccccc1
8 | < 5.00 | 6.00 to 7.00 | < 5.00 | 6.00 to 7.00 | C[C@H](Nc1cc(Cl)nn2ccnc12)c1cc2cccc(-c3cnn(C)c3)c2c(=O)n1-c1cccc(F)c1
9 | 6.00 to 7.00 | > 7.00 | < 5.00 | > 7.00 | COc1cncc(-c2cccc3cc([C@H](C)Nc4ncnc5cccnc45)n(-c4ccccc4)c(=O)c23)c1
10 | < 5.00 | > 7.00 | < 5.00 | 6.00 to 7.00 | COc1ncc(-c2cccc3cc([C@H](C)Nc4ccnc5ccnn45)n(-c4ccccc4)c(=O)c23)cn1
11 | < 5.00 | < 5.00 | < 5.00 | < 5.00 | C[C@H](Nc1ncc(C(F)(F)F)c(N)n1)c1cc2cccc(Cl)c2c(CCN2CCOCC2)n1
12 | < 5.00 | < 5.00 | < 5.00 | < 5.00 | C[C@H](NCc1cccnc1N)c1cc2cccc(Cl)c2c(=O)n1-c1ccccc1
13 | < 5.00 | > 7.00 | 6.00 to 7.00 | 6.00 to 7.00 | C[C@H](Nc1ncnc2cccnc12)c1cc2cccc(Cl)c2c(=O)n1CCN1CCCC1
14 | < 5.00 | < 5.00 | < 5.00 | < 5.00 | C[C@H](Nc1nc(Cl)ns1)c1cc2cccc(Cl)c2c(=O)n1-c1ccccc1
15 | < 5.00 | < 5.00 | < 5.00 | < 5.00 | COc1ncc(-c2cccc3cc([C@H](C)Nc4nc(O)nc5cccnc45)n(-c4ccccc4)c(=O)c23)cn1
16 | < 5.00 | > 7.00 | < 5.00 | > 7.00 | Cc1ncc(-c2cccc3cc([C@H](C)Nc4ncnc5cccnc45)n(-c4ccccc4)c(=O)c23)cn1
17 | < 5.00 | < 5.00 | < 5.00 | < 5.00 | C[C@H](Nc1ncnc2cc(F)c(F)cc12)c1cc2cccc(Cl)c2c(=O)n1-c1ccccc1
18 | < 5.00 | 6.00 to 7.00 | < 5.00 | > 7.00 | CNc1cccc2cc([C@H](C)Nc3nc(N)nc4cccnc34)n(-c3ccccc3)c(=O)c12
19 | < 5.00 | > 7.00 | < 5.00 | 6.00 to 7.00 | CNc1nc(N[C@@H](C)c2cc3cccc(-c4cnc(OC)nc4)c3c(=O)n2-c2ccccc2)c2ncccc2n1

Row | pIC50 [1] | pIC50 [2] | pIC50 [3] | pIC50 [4] | Compound
20 | 6.00 to 7.00 | > 7.00 | > 7.00 | > 7.00 | C[C@H](Nc1ncnc2scnc12)c1cc2cccc(C(F)(F)F)c2c(=O)n1-c1ccccc1
21 | < 5.00 | < 5.00 | < 5.00 | < 5.00 | C[C@H](Nc1ncnc2cnccc12)c1cc2cccc(Cl)c2c(=O)n1-c1ccccc1
22 | < 5.00 | < 5.00 | < 5.00 | < 5.00 | C[C@@H](c1cc2cccc(Cl)c2c(=O)n1-c1ccccc1)n1c(=O)[nH]c2cnc(N)nc21
23 | < 5.00 | < 5.00 | < 5.00 | < 5.00 | COc1ncc(-c2cccc3cc([C@H](C)Nc4nc(OC)nc5cccnc45)n(-c4ccccc4)c(=O)c23)cn1
24 | < 5.00 | < 5.00 | < 5.00 | < 5.00 | C[C@H](Nc1nc(O)nc2[nH]cnc12)c1cc2cccc(C(F)(F)F)c2c(=O)n1-c1cccc(F)c1
25 | < 5.00 | 6.00 to 7.00 | < 5.00 | 6.00 to 7.00 | CNc1nc(N[C@@H](C)c2cc3cccc(-c4cnc(C)nc4)c3c(=O)n2-c2ccccc2)c2ncccc2n1
26 | < 5.00 | 6.00 to 7.00 | < 5.00 | 6.00 to 7.00 | C[C@H](Nc1cc(Cl)ncc1C(N)=O)c1cc2cccc(Cl)c2c(=O)n1-c1ccccc1
27 | 6.00 to 7.00 | > 7.00 | 6.00 to 7.00 | > 7.00 | C[C@H](Nc1ncnc2cccnc12)c1cc2cccc(Cl)c2c(=O)n1-c1cccc(F)c1
28 | < 5.00 | > 7.00 | 6.00 to 7.00 | > 7.00 | C[C@H](Nc1ncnc2[nH]cc(C#N)c12)c1cc2cccc(C(F)(F)F)c2c(=O)n1-c1ccccc1
29 | < 5.00 | > 7.00 | < 5.00 | > 7.00 | COc1ncc(-c2cccc3cc([C@H](C)Nc4nc(N)nc5cccnc45)n(-c4cccc(F)c4)c(=O)c23)cn1
30 | < 5.00 | 6.00 to 7.00 | < 5.00 | 6.00 to 7.00 | C[C@H](Nc1ccnn2ccnc12)c1cc2scc(-c3cnn(C)c3)c2c(=O)n1-c1ccccc1
31 | < 5.00 | 6.00 to 7.00 | < 5.00 | 6.00 to 7.00 | C[C@H](Nc1ccnc2ccnn12)c1cc2scc(-c3cnn(C)c3)c2c(=O)n1-c1ccccc1
32 | 6.00 to 7.00 | > 7.00 | > 7.00 | > 7.00 | C[C@H](Nc1ccnn2ccnc12)c1cc2cccc(Cl)c2c(=O)n1-c1ccccc1
33 | < 5.00 | > 7.00 | < 5.00 | > 7.00 | COc1ncc(-c2cccc3cc([C@H](C)Nc4ncnc5cccnc45)n(-c4ccccc4)c(=O)c23)cn1
34 | < 5.00 | < 5.00 | < 5.00 | < 5.00 | C[C@H](Nc1ncnc2cc(F)ccc12)c1cc2cccc(Cl)c2c(=O)n1-c1ccccc1
35 | < 5.00 | < 5.00 | < 5.00 | < 5.00 | C[C@H](Nc1nc(O)nc2cccnc12)c1cc2cccc(C(F)(F)F)c2c(=O)n1-c1cccc(F)c1
36 | 6.00 to 7.00 | > 7.00 | 6.00 to 7.00 | > 7.00 | C[C@H](Nc1nc(N)nc2cccnc12)c1cc2cccc(-c3cnc4[nH]ccc4c3)c2c(=O)n1-c1ccccc1
37 | < 5.00 | < 5.00 | < 5.00 | < 5.00 | C[C@H](Nc1nccc2nccn12)c1cc2cccc(Cl)c2c(=O)n1-c1ccccc1
38 | 6.00 to 7.00 | > 7.00 | > 7.00 | > 7.00 | C[C@H](Nc1ncnc2cccnc12)c1cc2cccc(Cl)c2c(=O)n1C1CC1
